Data from patent publication US20260041744A1, “Methods for Treating Pompe Disease” (Amicus Therapeutics, Inc., priority 2022, published 2026).
“Also recorded” adds a separate entry of the source.

Assays:
[1] = system: adults with Pompe disease; assay: Study ATB200-02: manual muscle test (MMT lower extremity, upper body, total); format: in vivo, human; conditions: for MMT total score (upper body) change from baseline, mean: Cohort 2 (non-ambulatory ERT-experienced)
From the text: Results for lower extremity MMT are shown in Table 25 and FIGS. 48A and 48B.

[2] = system: adults with Pompe disease; assay: Study ATB200-02: patient-reported outcomes (FSS, R-PAct, RHS); format: in vivo, human
From the text: Favorable findings observed through 48 months of treatment in 6MWD and FVC are bolstered by favorable directional trends in several other secondary endpoints for muscle strength, motor function, and respiratory function.
PROs supported the improvements observed for motor function, muscle strength and pulmonary function tests. […] SGIC outcomes for overall physical wellbeing improved in most patients across all cohorts after 48 months of follow up (Table 26C). PGIC results indicated an improvement or stabilization for all cohorts after 48 months of follow up and supported the results of other efficacy outcomes (Table 26C).
One patient reported no change, and one reported an improvement from baseline in SGIC overall physical wellbeing.

[3] = Ambulatory ERT-experienced, 12 months
[4] = Ambulatory ERT-experienced, 24 months
[5] = Ambulatory ERT-experienced, 36 months
[6] = Ambulatory ERT-experienced, 48 months
[7] = Ambulatory ERT-naïve, 12 months
[8] = Ambulatory ERT-naïve, 24 months
[9] = Ambulatory ERT-naïve, 36 months
[10] = Ambulatory ERT-naïve, 48 months
[11] = Cohort 1 + Cohort 3 + Cohort 4, Month 12
[12] = Cohort 1 + Cohort 3 + Cohort 4, Month 24
[13] = Cohort 1 + Cohort 3 + Cohort 4, Month 36
[14] = Cohort 1 + Cohort 3 + Cohort 4, Month 48
[15] = Non-ambulatory ERT-experienced, 12 months
[16] = Non-ambulatory ERT-experienced, 24 months
[17] = Non-ambulatory ERT-experienced, 36 months
[18] = Non-ambulatory ERT-experienced, 48 months

ATB200/miglustat: two-component therapy: cipaglucosidase alfa (ATB200) administered in conjunction with miglustat (AT2221), a stabilizer of cipaglucosidase alfa
muscle strength by MMTs and QMTs ([1]; 48 months): stable or improved muscle strength in the lower and upper extremities and proximal muscle groups | Lower body MMT score, CFBL mean [1, 3]: 3.1 | Total MMT score, CFBL mean [1, 3]: 4.3 | Upper body MMT score, CFBL mean [1, 3]: 1.3 | Lower body MMT score, CFBL mean [1, 4]: 2.1 | Total MMT score, CFBL mean [1, 4]: 2.5 | Upper body MMT score, CFBL mean [1, 4]: 0.5 | Lower body MMT score, CFBL mean [1, 5]: 2.5 | Total MMT score, CFBL mean [1, 5]: 3.6 | Upper body MMT score, CFBL mean [1, 5]: 0.8 | Lower body MMT score, CFBL mean [1, 6]: 3.5 | Total MMT score, CFBL mean [1, 6]: 4.0 | Upper body MMT score, CFBL mean [1, 6]: 0.5 | Lower body MMT score, CFBL mean [1, 7]: 2.8 | Total MMT score, CFBL mean [1, 7]: 2.4 | Upper body MMT score, CFBL mean [1, 7]: 0.0 | Lower body MMT score, CFBL mean [1, 8]: 3.0 | Total MMT score, CFBL mean [1, 8]: 2.0 | Upper body MMT score, CFBL mean [1, 8]: −1.5 | Lower body MMT score, CFBL mean [1, 9]: (3.3 | Total MMT score, CFBL mean [1, 9]: 3.5 | Upper body MMT score, CFBL mean [1, 9]: 1.0 | Lower body MMT score, CFBL mean [1, 10]: (1.0) | Total MMT score, CFBL mean [1, 10]: −1.3 | Upper body MMT score, CFBL mean [1, 10]: −1.4 | MMT (total score) CFB, mean ([1]; Cohort 1 + Cohort 3 + Cohort 4, 24-mo): 2.4 | MMT (total score) CFB, mean ([1]; Cohort 1 + Cohort 3 + Cohort 4, 48-mo): 2.3 | MMT lower extremity score change from baseline, mean [1, 11]: 3.0 | MMT lower extremity score change from baseline, median [1, 11]: 3.0 | MMT lower extremity score change from baseline, mean [1, 12]: 2.3 | MMT lower extremity score change from baseline, median [1, 12]: 2.0 | MMT lower extremity score change from baseline, mean [1, 13]: 2.7 | MMT lower extremity score change from baseline, median [1, 13]: 2.0 | MMT lower extremity score change from baseline, mean [1, 14]: 2.7 | MMT lower extremity score change from baseline, median [1, 14]: 3.0 | MMT (total score) CFB, mean ([1]; Cohort 1 + Cohort 4 (ERT-experienced), 24-mo): 2.5 | MMT (total score) CFB, mean ([1]; Cohort 1 + Cohort 4 (ERT-experienced), 48-mo): 4.0 | MMT lower extremity score change from baseline, mean ([1]; Cohort 1 + Cohort 4 (ERT-experienced), Month 12): 3.1 pts | MMT lower extremity score change from baseline, mean ([1]; Cohort 1 + Cohort 4 (ERT-experienced), Month 24): 2.1 pts | MMT lower extremity score change from baseline, mean ([1]; Cohort 1 + Cohort 4 (ERT-experienced), Month 36): 2.5 pts | MMT lower extremity score change from baseline, mean ([1]; Cohort 1 + Cohort 4 (ERT-experienced), Month 48): 3.5 pts | MMT lower extremity score change from baseline, median ([1]; Cohort 1 + Cohort 4, Month 12): 2.0 | MMT lower extremity score change from baseline, median ([1]; Cohort 1 + Cohort 4, Month 24): 2.0 | MMT lower extremity score change from baseline, median ([1]; Cohort 1 + Cohort 4, Month 36): 1.5 | MMT lower extremity score change from baseline, median ([1]; Cohort 1 + Cohort 4, Month 48): 3.0 | MMT total score (upper body) change from baseline, mean ([1]; month 12): +1.3 pts | MMT total score (upper body) change from baseline, mean ([1]; month 24): +2.0 pts | MMT total score (upper body) change from baseline, mean ([1]; month 36): −0.8 pts | MMT (total score) CFB, mean ([1]; Cohort 3 (ERT-naïve), 24-mo): 2.0 | MMT (total score) CFB, mean ([1]; Cohort 3 (ERT-naïve), 48-mo): −1.3 | MMT lower extremity score change from baseline, mean ([1]; Cohort 3 (ERT-naïve), Month 12): 2.8 pts | MMT lower extremity score change from baseline, mean ([1]; Cohort 3 (ERT-naïve), Month 24): 3.0 pts | MMT lower extremity score change from baseline, mean ([1]; Cohort 3 (ERT-naïve), Month 36): 3.3 pts | MMT lower extremity score change from baseline, mean ([1]; Cohort 3 (ERT-naïve), Month 48): 1.0 pts | MMT lower extremity score change from baseline, median ([1]; Cohort 3, Month 12): 4.0 | MMT lower extremity score change from baseline, median ([1]; Cohort 3, Month 24): 3.0 | MMT lower extremity score change from baseline, median ([1]; Cohort 3, Month 36): 3.5 | MMT lower extremity score change from baseline, median ([1]; Cohort 3, Month 48): 2.0 | patients whose MMT lower extremity score improved numerically from baseline (n/N) ([1]; ERT-experienced ambulatory, 12 months): 14/15 | patients whose MMT lower extremity score improved numerically from baseline (n/N) ([1]; ERT-experienced ambulatory, 24 months): 11/13 | patients whose MMT lower extremity score improved numerically from baseline (n/N) ([1]; ERT-experienced ambulatory, 36 months): 10/10 | patients whose MMT lower extremity score improved numerically from baseline (n/N) ([1]; ERT-experienced ambulatory, 48 months): 8/8 | patients whose MMT lower extremity score improved numerically from baseline (n/N) ([1]; ERT-naïve, 12 months): 4/5 | patients whose MMT lower extremity score improved numerically from baseline (n/N) ([1]; ERT-naïve, 24 months): 4/5 | patients whose MMT lower extremity score improved numerically from baseline (n/N) ([1]; ERT-naïve, 36 months): 4/4 | patients whose MMT lower extremity score improved numerically from baseline (n/N) ([1]; ERT-naïve, 48 months): 3/4 | Total MMT score, CFBL mean [1, 15]: 1.3 | Upper body MMT score, CFBL mean [1, 15]: 1.3 | Total MMT score, CFBL mean [1, 16]: 2.0 | Upper body MMT score, CFBL mean [1, 16]: 2.0 | Total MMT score, CFBL mean [1, 17]: −0.8 | Upper body MMT score, CFBL mean [1, 17]: −0.8 | patient-reported outcomes FSS, R-PAct, RHS ([2]; 48 months, listed as cipaglucosidase alfa/miglustat): meaningful improvements in subject-perceived fatigue, ability to perform daily life activities, and overall physical well-being; also recorded: all ambulatory patients reported stable R-PAct scores and RHS compared with baseline scores; also recorded: improved FSS and stable RHS scores compared with baseline | Fatigue Severity Scale, CFBL mean [2, 3]: −2.9 | Rasch-built Pompe-specific Activity, CFBL mean [2, 3]: 1.3 | Rotterdam Handicap Scale, CFBL mean [2, 3]: −0.3 | Fatigue Severity Scale, CFBL mean [2, 4]: −3.1 | Rasch-built Pompe-specific Activity, CFBL mean [2, 4]: 2.2 | Rotterdam Handicap Scale, CFBL mean [2, 4]: −1.1 | Fatigue Severity Scale, CFBL mean [2, 5]: 1.4 | Rasch-built Pompe-specific Activity, CFBL mean [2, 5]: −0.1 | Rotterdam Handicap Scale, CFBL mean [2, 5]: −2.3 | Fatigue Severity Scale, CFBL mean [2, 6]: −3.4 | Rasch-built Pompe-specific Activity, CFBL mean [2, 6]: −0.3 | Rotterdam Handicap Scale, CFBL mean [2, 6]: −2.3 | Fatigue Severity Scale, CFBL mean [2, 7]: −6.3 | Rasch-built Pompe-specific Activity, CFBL mean [2, 7]: 2.0 | Rotterdam Handicap Scale, CFBL mean [2, 7]: −0.4 | Fatigue Severity Scale, CFBL mean [2, 8]: −5.5 | Rasch-built Pompe-specific Activity, CFBL mean [2, 8]: 2.2 | Rotterdam Handicap Scale, CFBL mean [2, 8]: −0.4 | Fatigue Severity Scale, CFBL mean [2, 9]: −6.2 | Rasch-built Pompe-specific Activity, CFBL mean [2, 9]: 1.4 | Rotterdam Handicap Scale, CFBL mean [2, 9]: −1.2 | Fatigue Severity Scale, CFBL mean [2, 10]: 1.2 | Rasch-built Pompe-specific Activity, CFBL mean [2, 10]: −0.6 | Rotterdam Handicap Scale, CFBL mean [2, 10]: −1.3 | Fatigue Severity Scale, CFBL mean [2, 15]: −9.2 | Rasch-built Pompe-specific Activity, CFBL mean [2, 15]: 1.4 | Rotterdam Handicap Scale, CFBL mean [2, 15]: 0.6 | Fatigue Severity Scale, CFBL mean [2, 16]: −23.0 | Rasch-built Pompe-specific Activity, CFBL mean [2, 16]: 0.8 | Rotterdam Handicap Scale, CFBL mean [2, 16]: 0.6 | Fatigue Severity Scale, CFBL mean [2, 17]: −10.0 | Rasch-built Pompe-specific Activity, CFBL mean [2, 17]: 0.8 | Rotterdam Handicap Scale, CFBL mean [2, 17]: 0.6 | Fatigue Severity Scale, CFBL mean [2, 18]: −12.0 | Rasch-built Pompe-specific Activity, CFBL mean [2, 18]: 2.0 | Rotterdam Handicap Scale, CFBL mean [2, 18]: −1.5
